Data from PubChem BioAssay AID248 (DTP/NCI, 2004).
Values joined by “and” are separate entries in the source; they are usually repeats but may differ in a detail not shown here. Identical values can stand only once. Toxic doses and inconclusive results are not listed.

System: L1210 leukemia ip in BDF1 mice, survival T/C
Assay: NCI In Vivo Anticancer Drug Screen. Data for tumor model L1210 Leukemia (intraperitoneal) in B6D2F1 (BDF1) mice
Conditions: vehicle: saline, higher = longer survival
Outline: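 Transplanted-tumor mice were given test agent; controls received vehicle only. Survival readings from the two groups were divided (treated over control).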

With `N[C@H](C(=O)O)[C@@H]1CC(Cl)=NO1` the T/C (endpoint: mean survival time, dose: 0.1 mg/kg/injection, schedule: Q03HX024 (ip)) was 120 % of control, the T/C (endpoint: mean survival time, dose: 0.39 mg/kg/injection, schedule: Q01DX009 (sc)) was 119 % of control and 121 % of control and the T/C (endpoint: mean survival time, dose: 0.39 mg/kg/injection, schedule: Q03HX024 (ip)) was 194 % of control. For the same molecule, the T/C (endpoint: mean survival time, dose: 0.78 mg/kg/injection, schedule: Q01DX009 (oral)) was 123 % of control, the T/C (endpoint: mean survival time, dose: 1.0 mg/kg/injection, schedule: Q01DX009 (ip)) was 123 % of control and 124 % of control and the T/C (endpoint: mean survival time, dose: 1.56 mg/kg/injection, schedule: Q01DX009 (oral)) was 151 % of control. The T/C (endpoint: mean survival time, dose: 3.12 mg/kg/injection, schedule: Q01DX001 (ip)) was 107 % of control, the T/C (endpoint: mean survival time, dose: 3.12 mg/kg/injection, schedule: Q04DX003 (ip)) was 107 % of control and the T/C (endpoint: mean survival time, dose: 4.0 mg/kg/injection, schedule: Q01DX009 (ip)) was 152 % of control. For the same molecule, the T/C (endpoint: mean survival time, dose: 6.2 mg/kg/injection, schedule: Q04DX003 (ip)) was 115 % of control and 116 % of control, the T/C (endpoint: mean survival time, dose: 6.25 mg/kg/injection, schedule: Q01DX001 (ip)) was 112 % of control and the T/C (endpoint: mean survival time, dose: 6.25 mg/kg/injection, schedule: Q01DX009 (oral)) was 107 % of control and 110 % of control. The T/C (endpoint: mean survival time, dose: 6.25 mg/kg/injection, schedule: Q01DX009 (sc)) was 105 % of control, the T/C (endpoint: mean survival time, dose: 12.5 mg/kg/injection, schedule: Q01DX001 (ip)) was 119 % of control and the T/C (endpoint: mean survival time, dose: 12.5 mg/kg/injection, schedule: Q01DX009 (sc)) was 101 % of control. The T/C (endpoint: mean survival time, dose: 12.5 mg/kg/injection, schedule: Q04DX003 (ip)) was 109 % of control and 110 % of control, the T/C (endpoint: mean survival time, dose: 16.0 mg/kg/injection, schedule: Q01DX009 (ip)) was 102 % of control and the T/C (endpoint: mean survival time, dose: 25.0 mg/kg/injection, schedule: Q01DX009 (sc)) was 94 % of control and 95 % of control. The T/C (endpoint: mean survival time, dose: 25.0 mg/kg/injection, schedule: Q03HX008 (ip)) was 153 % of control, the T/C (endpoint: mean survival time, dose: 25.0 mg/kg/injection, schedule: Q04DX003 (ip)) was 116 % of control and 120 % of control and the T/C (endpoint: mean survival time, dose: 32.0 mg/kg/injection, schedule: Q01DX009 (ip)) was 104 % of control and 115 % of control. For the same molecule, the T/C (endpoint: mean survival time, dose: 50.0 mg/kg/injection, schedule: Q04DX003 (ip)) was 120 % of control and 123 % of control, the T/C (endpoint: median survival time, dose: 0.25 mg/kg/injection, schedule: Q03HX024 (ip)) was 117 % of control and the T/C (endpoint: median survival time, dose: 0.39 mg/kg/injection, schedule: Q03HX024 (ip)) was 175 % of control. For the same molecule, the T/C (endpoint: median survival time, dose: 0.5 mg/kg/injection, schedule: Q03HX016 (ip)) was 124 % of control, the T/C (endpoint: median survival time, dose: 0.78 mg/kg/injection, schedule: Q01DX009 (ip)) was 153 % of control and the T/C (endpoint: median survival time, dose: 0.78 mg/kg/injection, schedule: Q03HX016 (ip)) was 150 % of control. The T/C (endpoint: median survival time, dose: 0.78 mg/kg/injection, schedule: Q03HX024 (ip)) was 191 % of control, the T/C (endpoint: median survival time, dose: 1.0 mg/kg/injection, schedule: Q01DX009 (sc)) was 122 % of control and the T/C (endpoint: median survival time, dose: 1.0 mg/kg/injection, schedule: Q03HX008 (ip)) was 120 % of control. The T/C (endpoint: median survival time, dose: 1.0 mg/kg/injection, schedule: Q03HX024 (ip)) was 159 % of control, the T/C (endpoint: median survival time, dose: 1.56 mg/kg/injection, schedule: Q03HX016 (ip)) was 159 % of control and the T/C (endpoint: median survival time, dose: 2.0 mg/kg/injection, schedule: Q03HX016 (ip)) was 150 % of control. For the same molecule, the T/C (endpoint: median survival time, dose: 2.0 mg/kg/injection, schedule: Q03HX024 (ip)) was 181 % of control, the T/C (endpoint: median survival time, dose: 2.0 mg/kg/injection, schedule: Q04DX003 (ip)) was 106 % of control and the T/C (endpoint: median survival time, dose: 3.12 mg/kg/injection, schedule: Q01DX009 (ip)) was 94 % of control. For the same molecule, the T/C (endpoint: median survival time, dose: 3.12 mg/kg/injection, schedule: Q03HX008 (ip)) was 154 % of control, the T/C (endpoint: median survival time, dose: 3.12 mg/kg/injection, schedule: Q03HX016 (ip)) was 166 % of control and the T/C (endpoint: median survival time, dose: 4.0 mg/kg/injection, schedule: Q01DX009 (ip)) was 158 % of control. The T/C (endpoint: median survival time, dose: 4.0 mg/kg/injection, schedule: Q03HX016 (ip)) was 153 % of control, the T/C (endpoint: median survival time, dose: 4.0 mg/kg/injection, schedule: Q04DX003 (ip)) was 110 % of control and the T/C (endpoint: median survival time, dose: 4.0 mg/kg/injection, schedule: Q08DX002 (ip)) was 104 % of control. The T/C (endpoint: median survival time, dose: 6.25 mg/kg/injection, schedule: Q03HX016 (ip)) was 182 % of control, the T/C (endpoint: median survival time, dose: 8.0 mg/kg/injection, schedule: Q01DX001 (ip)) was 100 % of control and the T/C (endpoint: median survival time, dose: 8.0 mg/kg/injection, schedule: Q01DX001 (sc)) was 114 % of control. For the same molecule, the T/C (endpoint: median survival time, dose: 8.0 mg/kg/injection, schedule: Q01DX009 (ip)) was 165 % of control, the T/C (endpoint: median survival time, dose: 8.0 mg/kg/injection, schedule: Q01DX009 (sc)) was 162 % of control and the T/C (endpoint: median survival time, dose: 8.0 mg/kg/injection, schedule: Q03HX016 (ip)) was 162 % of control. For the same molecule, the T/C (endpoint: median survival time, dose: 8.0 mg/kg/injection, schedule: Q08DX002 (ip)) was 114 % of control, the T/C (endpoint: median survival time, dose: 12.5 mg/kg/injection, schedule: Q01DX001 (ip)) was 115 % of control and the T/C (endpoint: median survival time, dose: 12.5 mg/kg/injection, schedule: Q03HX016 (ip)) was 171 % of control. For the same molecule, the T/C (endpoint: median survival time, dose: 12.5 mg/kg/injection, schedule: Q03HX024 (ip)) was 93 % of control, the T/C (endpoint: median survival time, dose: 12.5 mg/kg/injection, schedule: Q04DX003 (ip)) was 153 % of control and the T/C (endpoint: median survival time, dose: 12.5 mg/kg/injection, schedule: Q08DX002 (ip)) was 151 % of control. For the same molecule, the T/C (endpoint: median survival time, dose: 16.0 mg/kg/injection, schedule: Q01DX001 (ip)) was 99 % of control, the T/C (endpoint: median survival time, dose: 16.0 mg/kg/injection, schedule: Q01DX001 (sc)) was 105 % of control and the T/C (endpoint: median survival time, dose: 16.0 mg/kg/injection, schedule: Q01DX009 (oral)) was 94 % of control. For the same molecule, the T/C (endpoint: median survival time, dose: 16.0 mg/kg/injection, schedule: Q01DX009 (sc)) was 109 % of control, the T/C (endpoint: median survival time, dose: 16.0 mg/kg/injection, schedule: Q03HX016 (ip)) was 155 % of control and the T/C (endpoint: median survival time, dose: 16.0 mg/kg/injection, schedule: Q04DX003 (ip)) was 120 % of control. The T/C (endpoint: median survival time, dose: 16.0 mg/kg/injection, schedule: Q08DX002 (ip)) was 106 % of control, the T/C (endpoint: median survival time, dose: 25.0 mg/kg/injection, schedule: Q01DX001 (ip)) was 108 % of control and the T/C (endpoint: median survival time, dose: 25.0 mg/kg/injection, schedule: Q04DX003 (ip)) was 154 % of control. The T/C (endpoint: median survival time, dose: 32.0 mg/kg/injection, schedule: Q01DX001 (ip)) was 113 % of control, the T/C (endpoint: median survival time, dose: 32.0 mg/kg/injection, schedule: Q01DX001 (sc)) was 107 % of control and the T/C (endpoint: median survival time, dose: 32.0 mg/kg/injection, schedule: Q01DX009 (ip)) was 103 % of control. For the same molecule, the T/C (endpoint: median survival time, dose: 32.0 mg/kg/injection, schedule: Q08DX002 (ip)) was 114 % of control, the T/C (endpoint: median survival time, dose: 50.0 mg/kg/injection, schedule: Q01DX001 (ip)) was 122 % of control and the T/C (endpoint: median survival time, dose: 50.0 mg/kg/injection, schedule: Q04DX003 (ip)) was 188 % of control. For the same molecule, the T/C (endpoint: median survival time, dose: 50.0 mg/kg/injection, schedule: Q08DX002 (ip)) was 151 % of control, the T/C (endpoint: median survival time, dose: 64.0 mg/kg/injection, schedule: Q01DX001 (ip)) was 113 % of control and the T/C (endpoint: median survival time, dose: 64.0 mg/kg/injection, schedule: Q01DX001 (oral)) was 112 % of control and 114 % of control. For the same molecule, the T/C (endpoint: median survival time, dose: 64.0 mg/kg/injection, schedule: Q01DX001 (sc)) was 116 % of control, the T/C (endpoint: median survival time, dose: 64.0 mg/kg/injection, schedule: Q08DX002 (ip)) was 109 % of control and the T/C (endpoint: median survival time, dose: 128.0 mg/kg/injection, schedule: Q01DX001 (ip)) was 116 % of control. For the same molecule, the T/C (endpoint: median survival time, dose: 128.0 mg/kg/injection, schedule: Q01DX001 (oral)) was 119 % of control, the T/C (endpoint: median survival time, dose: 128.0 mg/kg/injection, schedule: Q01DX001 (sc)) was 115 % of control and the T/C (endpoint: median survival time, dose: 128.0 mg/kg/injection, schedule: Q08DX002 (ip)) was 119 % of control. For the same molecule, the T/C (endpoint: median survival time, dose: 256.0 mg/kg/injection, schedule: Q01DX001 (ip)) was 110 % of control, the T/C (endpoint: median survival time, dose: 256.0 mg/kg/injection, schedule: Q01DX001 (oral)) was 116 % of control and the T/C (endpoint: median survival time, dose: 256.0 mg/kg/injection, schedule: Q01DX001 (sc)) was 120 % of control. The T/C (endpoint: median survival time, dose: 400.0 mg/kg/injection, schedule: Q01DX001 (ip)) was 93 % of control and the T/C (endpoint: median survival time, dose: 400.0 mg/kg/injection, schedule: Q08DX002 (ip)) was 116 % of control.
